Source: US20130274276A1, “METHODS AND COMPOSITIONS FOR DETERMINING VIRUS SUSCEPTIBILITY TO NON-NUCLEOSIDE REVERSE TRANSCRIPTASE INHIBITORS” (Laboratory Corporation of America Holdings, priority 2012, published 2013)

Columns and labels:
Type in all cases: cell-based
[1] = system: HIV strain derived from an infected patient having a Y188L mutation; assay: PhenoSenseGT report, susceptibility analysis of patient-derived HIV; conditions: fold change in IC50 greater than the biological cutoff (BCO) for those drugs, FIG. 3
Experimental: FIG. 3 is a sample PhenoSenseGT® report showing the results of susceptibility analyses to various nucleoside reverse transcriptase inhibitors (NRTIs), non-nucleoside reverse transcriptase inhibitors (NNRTIs), and protease inhibitors (PIs).
Drug susceptibility tests performed with resistance test vectors were carried out using packaging host and target host cells consisting of the human embryonic kidney cell line 293. Susceptibility tests were carried out with the RTV libraries by using viral particles comprising the RTV libraries to infect a host cell in which the expression of the indicator gene is measured. The amount of indicator gene (luciferase) activity detected in infected cells is used as a direct measure of “infectivity,” i.e., the ability of the virus to complete a single round of replication. Thus, drug susceptibility can be determined by plotting the amount of luciferase activity produced by patient derived viruses in the presence of varying concentrations of the antiviral drug. By identifying the concentration of drug at which luciferase activity is half-maximum, the IC50 of the virus from which patient-derived segment(s) were obtained for the antiretroviral agent can be determined. The IC50 provides a direct measure of the susceptibility of the HIV infecting the patient to the drug. […]

[2] = system: HIV engineered to contain the Y188L reverse transcriptase mutation
Experimental: Site-directed mutagenesis (SDM) was performed to verify the association of Y188L with RPV resistance. The impact of this mutation was also evaluated and compared to the existing RPV RAMs (K101E/P, E138A/G/K/Q/R, V179L, Y181C/I/V, H221Y, F227C, and M230I/L) by performing in-silico site directed mutagenesis (is SDM) as a method for analyzing samples in the database that have wild type amino acids at RPV resistance positions except for the single mutation of interest. Samples were not excluded based on other NNRTI RAMs, or their NRTI and PI profile. In the is SDM analysis, fold change (FC) distribution of samples with each mutation was compared to specimens without the mutation, and the difference was evaluated for statistical significance using Mann-Whitney test. […]
Drug susceptibility tests performed with resistance test vectors were carried out using packaging host and target host cells consisting of the human embryonic kidney cell line 293. Susceptibility tests were carried out with the RTV libraries by using viral particles comprising the RTV libraries to infect a host cell in which the expression of the indicator gene is measured. The amount of indicator gene (luciferase) activity detected in infected cells is used as a direct measure of “infectivity,” i.e., the ability of the virus to complete a single round of replication. […]

[3] = system: HIV clinical specimens with Y188L and no known RPV resistance associated mutations; assay: In-silico site directed mutagenesis (isSDM) analysis of matched phenotype/genotype database of clinical specimens; conditions: 286 clinical specimens with Y188L and no known RPV resistance associated mutations; biological cutoff FC=2
Experimental: Rilpivirine (RPV) is a recently approved non-nucleoside reverse transcriptase inhibitor (NNRTI). […] Correlation analysis was performed among clinical specimens with both phenotypic and genotypic data (N=20,004). A novel mutation associated with phenotypic reduced rilpivirine susceptibility was identified, Y188L, as determined by a fold change in IC50 (FC) greater than the biological cutoff (BCO) for rilpivirine (FC=2).
Site-directed mutagenesis (SDM) was performed to verify the association of Y188L with RPV resistance. The impact of this mutation was also evaluated and compared to the existing RPV RAMs (K101E/P, E138A/G/K/Q/R, V179L, Y181C/I/V, H221Y, F227C, and M230I/L) by performing in-silico site directed mutagenesis (is SDM) as a method for analyzing samples in the database that have wild type amino acids at RPV resistance positions except for the single mutation of interest. Samples were not excluded based on other NNRTI RAMs, or their NRTI and PI profile. In the is SDM analysis, fold change (FC) distribution of samples with each mutation was compared to specimens without the mutation, and the difference was evaluated for statistical significance using Mann-Whitney test.
Drug susceptibility tests performed with resistance test vectors were carried out using packaging host and target host cells consisting of the human embryonic kidney cell line 293. […]

| Structure (SMILES) | susceptibility of HIV with Y188L mutation (fold change in IC50 relative to biological cutoff) [1] | fold change in IC50 (FC) of the Y188L site directed mutant [2] [fold] | median fold change in IC50 (FC) of clinical specimens with Y188L [3] [fold] |
| --- | --- | --- | --- |
| O=C1Nc2ccc(Cl)cc2[C@@](C#CC2CC2)(C(F)(F)F)O1 [efavirenz] | reduced susceptibility | – | – |
| Cc1ccnc2c1NC(=O)c1cccnc1N2C1CC1 [nevirapine] | reduced susceptibility | – | – |
| Cc1cc(/C=C/C#N)cc(C)c1Nc1ccnc(Nc2ccc(C#N)cc2)n1 [rilpivirine] | – | 6.1 | 9.2 |
